Data published in US11840686B2, “Modulation of prekallikrein (PKK) expression” (Ionis Pharmaceuticals, Inc., priority 2013, dated 2023).
Strand notation (5' to 3'): a small letter for the sugar, then the base; units joined by * are phosphorothioate-linked, units joined directly phosphodiester-linked; [ ] holds rarer units or linkages, { } end groups; capitals alone tell only the bases. e = 2'-O-(2-methoxyethyl) (MOE); [5mC] = 5-methylcytosine; d = 2'-deoxy (DNA)

test system: human PKK mRNA; test: Antisense inhibition of human PKK mRNA in HepaRG cells, 5,000 nM (Example 2); format: cell-based; conditions: HepaRG cells, 5,000 nM antisense oligonucleotide; 5-10-5 gapmers; Table 16
Summary of the method: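 HepaRG cells, 20,000 per well, were electroporated with 5,000 nM MOE gapmer (phosphorothioate, 5-methylcytosine) and incubated about 24 hours. PKK mRNA was quantified by qRT-PCR with primer probe set RTS3454, normalized to RIBOGREEN total RNA, and expressed as percent inhibition versus untreated controls.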

| Substance | % inhibition |
| --- | --- |
| 546912 (eA*e[5mC]*eA*eT*e[5mC]*dA*d[5mC]*dT*dG*dT*d[5mC]*d[5mC]*dT*dA*dT*eA*eA*e[5mC]*eT*eA; antisense) [compound 546912] | 26% |
| 546913 (eG*eT*eA*e[5mC]*e[5mC]*dT*dA*dT*dA*dT*d[5mC]*dA*d[5mC]*dT*dG*eT*eA*eA*e[5mC]*eT; antisense) [compound 546913] | 38% |
| 546914 (eA*eT*eA*eT*e[5mC]*dA*d[5mC]*dT*dG*dT*dA*d[5mC]*d[5mC]*dT*dA*eT*eA*eT*e[5mC]*eA; antisense) [compound 546914] | 52% |
| 546915 (eT*e[5mC]*eA*e[5mC]*eT*dG*dT*d[5mC]*d[5mC]*dT*dA*dT*dA*dA*d[5mC]*eT*eA*eT*eA*eT; antisense) [compound 546915] | 39% |
| 546917 (eA*eT*e[5mC]*eA*e[5mC]*dT*dG*dT*d[5mC]*d[5mC]*dT*dA*dT*dA*dA*e[5mC]*eT*eA*eT*eT; antisense) [compound 546917] | 63% |
| 546918 (eA*eA*e[5mC]*eA*eT*d[5mC]*dA*d[5mC]*dT*dG*dT*dA*d[5mC]*d[5mC]*dT*eA*eT*eA*eA*e[5mC]; antisense) [compound 546918] | 14% |
| 546926 (eG*e[5mC]*e[5mC]*eA*eT*d[5mC]*d[5mC]*dA*dG*dG*dG*dT*dG*d[5mC]*dT*e[5mC]*eT*e[5mC]*e[5mC]*e[5mC]; antisense) [compound 546926] | 81% |
| 546931 (eG*e[5mC]*e[5mC]*e[5mC]*e[5mC]*d[5mC]*dG*dG*dA*dG*d[5mC]*dA*d[5mC]*d[5mC]*dT*eT*e[5mC]*eA*e[5mC]*eT; antisense) [compound 546931] | 58% |
| 546935 (e[5mC]*eG*eT*eG*eG*dT*dT*dA*dG*d[5mC]*d[5mC]*dT*dG*dA*d[5mC]*eA*eT*e[5mC]*eT*e[5mC]; antisense) [compound 546935] | 86% |
| 546942 (eT*eA*e[5mC]*eA*e[5mC]*dT*dG*dA*dA*d[5mC]*d[5mC]*d[5mC]*d[5mC]*d[5mC]*dT*eT*eA*eG*eG*e[5mC]; antisense) [compound 546942] | 56% |
| 546943 (e[5mC]*eA*eG*eT*eT*dT*dG*dG*d[5mC]*d[5mC]*dT*dT*dT*d[5mC]*d[5mC]*eA*eT*e[5mC]*eT*e[5mC]; antisense) [compound 546943] | 54% |
| 546944 (eG*e[5mC]*e[5mC]*eA*e[5mC]*dT*dA*dA*d[5mC]*d[5mC]*d[5mC]*dA*d[5mC]*d[5mC]*dT*e[5mC]*eT*eT*eA*eA; antisense) [compound 546944] | 42% |
| 546946 (eA*e[5mC]*eT*e[5mC]*e[5mC]*d[5mC]*dA*dT*d[5mC]*dT*dA*d[5mC]*dT*d[5mC]*d[5mC]*e[5mC]*e[5mC]*e[5mC]*eA*eT; antisense) [compound 546946] | 41% |
| 546954 (e[5mC]*eT*eG*e[5mC]*eT*dG*dA*dT*dT*dG*dT*dG*dT*d[5mC]*dT*eG*eG*e[5mC]*eT*e[5mC]; antisense) [compound 546954] | 71% |
| 546955 (eA*e[5mC]*eA*eA*eG*dG*d[5mC]*dT*dT*d[5mC]*dG*dA*dG*dG*dA*e[5mC]*eA*eG*e[5mC]*e[5mC]; antisense) [compound 546955] | 49% |
| 546964 (eG*e[5mC]*eG*eA*eT*dT*d[5mC]*d[5mC]*dT*dT*dG*d[5mC]*d[5mC]*dT*d[5mC]*eT*eG*e[5mC]*eT*eG; antisense) [compound 546964] | 53% |
| 546969 (eA*eT*e[5mC]*e[5mC]*eA*dA*d[5mC]*d[5mC]*dT*d[5mC]*dT*d[5mC]*dT*d[5mC]*d[5mC]*e[5mC]*eT*eA*eT*e[5mC]; antisense) [compound 546969] | 53% |
| 546970 (eG*e[5mC]*e[5mC]*e[5mC]*eA*dA*dG*d[5mC]*d[5mC]*dT*dA*d[5mC]*dA*dT*dG*e[5mC]*eA*eT*eA*e[5mC]; antisense) [compound 546970] | 61% |
| 546975 (eG*eG*e[5mC]*e[5mC]*eT*dG*dG*dA*dT*dA*d[5mC]*dA*dG*d[5mC]*d[5mC]*eT*eT*eT*e[5mC]*eT; antisense) [compound 546975] | 70% |
| 546977 (eG*eT*e[5mC]*e[5mC]*e[5mC]*dG*dA*dA*dG*dA*dG*dT*d[5mC]*dA*dA*eG*eT*e[5mC]*e[5mC]*eA; antisense) [compound 546977] | 76% |
| 546979 (eA*e[5mC]*eT*eG*eT*dT*dG*dT*d[5mC]*d[5mC]*dA*dT*dA*dG*d[5mC]*eA*eG*e[5mC]*eA*eT; antisense) [compound 546979] | 71% |
| 546983 (eG*eA*eT*eG*eA*d[5mC]*d[5mC]*dT*dG*d[5mC]*dA*dG*dA*dT*dG*e[5mC]*eA*e[5mC]*eA*eG; antisense) [compound 546983] | 74% |
| 546990 (eA*eG*eA*eA*e[5mC]*dA*dG*dG*dA*dG*dA*d[5mC]*dA*dA*dT*e[5mC]*e[5mC]*eA*e[5mC]*eT; antisense) [compound 546990] | 49% |
| 546994 (eG*eT*eT*e[5mC]*eA*dT*dG*dT*dG*dG*d[5mC]*dA*dA*d[5mC]*d[5mC]*eT*eG*eT*eG*eA; antisense) [compound 546994] | 58% |

same assay, conditions: HepaRG cells, 5,000 nM antisense oligonucleotide; 5-10-5 gapmers; Table 17

| Substance | % inhibition |
| --- | --- |
| 546999 (eG*e[5mC]*eA*eG*e[5mC]*dT*d[5mC]*dA*d[5mC]*dA*d[5mC]*d[5mC]*d[5mC]*dA*dA*eA*eA*eA*eG*e[5mC]; antisense) [compound 546999] | 29% |
| 547000 (eT*e[5mC]*eT*eG*eT*dT*dA*d[5mC]*d[5mC]*dT*dT*dG*dA*dG*dG*eA*eT*eT*eG*eT; antisense) [compound 547000] | 63% |
| 547008 (eT*eT*eG*eG*eT*dG*dG*dT*dG*dG*dG*dA*dT*dT*dG*eG*eT*eG*eG*eT; antisense) [compound 547008] | 81% |
| 547010 (eG*eA*eA*eT*eT*dG*dG*dT*dG*dG*dT*dG*dG*dG*dA*eT*eT*eG*eG*eT; antisense) [compound 547010] | 39% |
| 547011 (eG*eG*e[5mC]*eA*eG*dG*dA*dT*dT*dG*dG*dT*dG*dG*dT*eG*eG*eA*eA*eT; antisense) [compound 547011] | 22% |
| 547013 (eT*eG*eA*eG*eA*dT*dT*dG*dG*dT*dG*dG*dT*dG*dG*eG*eT*eG*eG*e[5mC]; antisense) [compound 547013] | 0% |
| 547015 (eG*eG*eT*eG*eG*dT*dG*dG*dG*dA*dT*dT*dG*dG*dT*eG*e[5mC]*eT*eG*eA; antisense) [compound 547015] | 55% |

same assay, conditions: human PKK mRNA, HepaRG cells; 5-10-5 motif oligonucleotides targeting SEQ ID NO: 1 and 10

| Substance | % inhibition |
| --- | --- |
| 546890 (eT*eG*eT*e[5mC]*e[5mC]*dT*dA*dT*dG*dT*d[5mC]*dA*d[5mC]*dT*dG*eT*eA*e[5mC]*e[5mC]*eT; antisense) [compound 546890] | 78% |
| 546891 (e[5mC]*eT*eG*eT*e[5mC]*d[5mC]*dT*dA*dT*dG*dT*d[5mC]*dA*d[5mC]*dT*eG*eT*eA*e[5mC]*e[5mC]; antisense) [compound 546891] | 81% |
| 546892 (eA*e[5mC]*eT*eG*eT*d[5mC]*d[5mC]*dT*dA*dT*dG*dT*d[5mC]*dA*d[5mC]*eT*eG*eT*eA*e[5mC]; antisense) [compound 546892] | 82% |
| 546893 (e[5mC]*eA*e[5mC]*eT*eG*dT*d[5mC]*d[5mC]*dT*dA*dT*dG*dT*d[5mC]*dA*e[5mC]*eT*eG*eT*eA; antisense) [compound 546893] | 70% |
| 546895 (eT*eA*eT*e[5mC]*eA*d[5mC]*dT*dG*dT*d[5mC]*d[5mC]*dT*dA*dT*dG*eT*e[5mC]*eA*e[5mC]*eT; antisense) [compound 546895] | 77% |
| 546898 (eA*eA*e[5mC]*eA*eG*dT*dA*dT*d[5mC]*dA*d[5mC]*dT*dG*dT*d[5mC]*e[5mC]*eT*eA*eT*eG; antisense) [compound 546898] | 91% |
| 546899 (e[5mC]*eT*eA*e[5mC]*e[5mC]*dT*dA*dT*dA*dA*d[5mC]*dT*d[5mC]*dT*dA*eA*e[5mC]*eA*eG*eT; antisense) [compound 546899] | 27% |
| 546901 (eA*e[5mC]*eT*eG*eT*d[5mC]*d[5mC]*dT*dA*dT*dA*dA*d[5mC]*dT*dA*eT*eA*eA*e[5mC]*eA; antisense) [compound 546901] | 56% |
| 546902 (e[5mC]*eA*e[5mC]*eT*eG*dT*d[5mC]*d[5mC]*dT*dA*dT*dA*dA*d[5mC]*dT*eA*eT*eA*eA*e[5mC]; antisense) [compound 546902] | 71% |
| 546904 (eT*e[5mC]*e[5mC]*eT*eA*dT*dA*dT*d[5mC]*dA*d[5mC]*dT*dG*dT*dA*e[5mC]*e[5mC]*eT*eA*eT; antisense) [compound 546904] | 80% |
| 546905 (eT*eA*e[5mC]*e[5mC]*eT*dA*dT*dA*dA*d[5mC]*dA*dG*dT*dA*dT*e[5mC]*eA*e[5mC]*eT*eG; antisense) [compound 546905] | 65% |
| 546907 (eA*eT*eA*eA*e[5mC]*dT*dA*dT*dA*dA*d[5mC]*dA*dG*dT*dA*eT*e[5mC]*eA*e[5mC]*e[5mC]; antisense) [compound 546907] | 37% |
| 546908 (eT*e[5mC]*eA*e[5mC]*eT*dG*dT*dA*d[5mC]*d[5mC]*dT*dA*dT*dA*dA*e[5mC]*eT*eA*eT*eA; antisense) [compound 546908] | 77% |
| 546909 (eA*eA*e[5mC]*eA*eA*dT*dA*dT*d[5mC]*dA*d[5mC]*dT*dG*dT*dA*e[5mC]*e[5mC]*eT*eT*eT; antisense) [compound 546909] | 44% |
| 546910 (eT*eA*eA*e[5mC]*eA*dA*dT*dA*dT*d[5mC]*dA*d[5mC]*dT*dG*dT*eA*e[5mC]*e[5mC]*eT*eT; antisense) [compound 546910] | 82% |
| 546911 (eG*eT*e[5mC]*e[5mC]*eT*dA*dT*dA*dA*d[5mC]*dT*dA*dT*dA*dA*e[5mC]*eA*eA*eT*eA; antisense) [compound 546911] | 52% |
